Data: US11548911B2, “Cleavable linker for peptide synthesis” (ROCHE SEQUENCING SOLUTIONS, INC., priority 2018, dated 2023)
Non-standard residues stand in square brackets, D forms with d. Residues, ends and D or L forms follow the SMILES beside them. Aha = [N-]=[N+]=NCC[C@H](N)C(=O)O

Assay: Water solubility of hydrophobic peptide and its linker cleavage fragments
Type: physicochemical
Description: In order to enhance solubility of this peptide a variant was prepared in which a cleavable N-terminal poly-lysine tag was synthesized after the peptide sequence and incorporated cleavable linker 1: H-KKKKK—(linker 1) AhaGISFSIRFAIWIRFG-NH2 (10) (SEQ. ID. No: 3). Synthesis and purification of this modified peptide proceeded smoothly according to example 3 (FIG. 2B). Pure peptide 10 was dissolved in a 0.05 M aqueous NaHCO3 solution and shaken for 2 h at r.t. (FIG. 2A). The cleavage reaction released the two peptides 11 and 12: While the poly-lysine tag 11 is water soluble, peptide 12 precipitated under the reaction conditions and could be easily isolated in high purity by centrifugation. • FIG. 2B: LC-MS of H-KKKKK (linker 1)-AhaGISFSIRFAIWIRFG-NH2 (10), MS (ESI): 545.4 [M+5H]^5+, 681.6 [M+4H]^4+, 908.3 [M+3H]^3+, 1362.0 [M+2H]^2+. • FIG. 2C: MS (ESI) of insoluble peptide 12 (MS (ESI): 661.5 [M+3H]^3+, 991.3 [M+2H]^2+, 1322.0 […], 1983.1 [M+H]^+).

solubility in water: insoluble in water
Compound: CC[C@H](C)[C@H](NC(=O)CNC(=O)[C@@H](N)CCN=[N+]=[N-])C(=O)N[C@@H](CO)C(=O)N[C@@H](Cc1ccccc1)C(=O)N[C@@H](CO)C(=O)N[C@H](C(=O)N[C@@H](CCCNC(=N)N)C(=O)N[C@@H](Cc1ccccc1)C(=O)N[C@@H](C)C(=O)N[C@H](C(=O)N[C@@H](Cc1c[nH]c2ccccc12)C(=O)N[C@H](C(=O)N[C@@H](CCCNC(=N)N)C(=O)N[C@@H](Cc1ccccc1)C(=O)NCC(N)=O)[C@@H](C)CC)[C@@H](C)CC)[C@@H](C)CC [H-AhaGISFSIRFAIWIRFG-NH2] (H-[Aha]GISFSIRFAIWIRFG-NH2)
